In data set [1] the target is T1, RFK module of CaFADS (Corynebacterium ammoniagenes, UniProt Q59263, L183M).
T1 construct: a truncated CaFADS variant consisting in the isolated C-terminal RFK module; made in house; host or cells: E. coli BL21(DE3)
In words: Steady-state RFK activity (HPLC quantification of flavins). It is filed as biochemical. The conditions noted are these: for KmRF / k cat: saturating ATP. How it is done:
In all cases, reactions were initiated by addition of the enzyme to a final concentration of ≈40 nM, which was followed by 1 min of incubation, and the reactions were stopped by boiling the samples at 100 °C for 5 min as previously described, [20]. The flavin composition of the supernatant was analyzed using an Alliance HPLC system (Waters) equipped with a 2707 autosampler and an HSST3 column (4.6 × 50 mm, […]; Waters) preceded by a precolumn (4.6 × 20 mm, […]; Waters) as previously described, [20]. […] All the experiments were carried out in triplicate.
Additionally, Dixon plots (1/(v 0/[e]) vs [I]) and Cornish-Bowden representations ([S]/(v 0/[e]) vs [I]) were used to reveal the type of inhibition, [43].

Data set [2] concerns the target T1, RFK module of CaFADS. In words: Isothermal titration calorimetry of binary and ternary interactions. It is filed as binding. On the procedure: Isothermal titration calorimetry (ITC) experiments were performed to elucidate the order in which ligands bind to the enzyme, as well as the binding inhibition effects from the thermodynamic point of view. Experiments were carried out in an AutoITC200 (MicroCal) that was thermostated at 25 °C. […] Titrations with FLV ligands of mixtures that contained the enzyme prebound with the ANP ligand were also carried out, as well as ANP titrations of mixtures of the enzyme saturated with FLV ligands. In these experiments, the titration was performed by stepwise injecting the titrating ligand. Up to 19 injections of 2 μL each were added to the calorimetric sample cell and mixed at a stirring speed of 1000 r.p.m. Ligands and protein were dissolved in 20 mM PIPES, pH 7.0, either in the presence or absence of 0.8 mM MgCl2, and degassed prior to titration. The association constant (K a), the enthalpy change (ΔH) and the binding stoichiometry (N) were obtained through a nonlinear least squares regression of the data using a homemade model for one or two independent binding sites, which was implemented in Origin 7.0 (OriginLab) as previously described, [20]. The entropic contribution (-TΔS), the Gibbs free energy (ΔG) and the dissociation constant (K d) were obtained through essential thermodynamic equations.
Experiments were performed in triplicate.
On the technique in general: In ITC the heat of successive injections is recorded.

Data set [3] in a line: Flavin photobleaching decay in the stopped-flow equipment. The format is physicochemical. The conditions noted are these: for photobleaching rate: flavin fluorescence decay during stopped-flow measurements, 25 °C, 0.8 mM MgCl2, pH 7.0; for rate of slow linear fluorescence decay (photobleaching range): flavin mixed with the RFK module without ANP, stopped-flow. The text has this:
Due to the deterioration that flavins undergo when they are exposed to light, we also evaluated the FLV photobleaching decay during measurements.

The mark [4] stands for this setting: initial mixture RFK:ADP, 0.0 mM MgCl2.
The mark [5] stands for this setting: initial mixture RFK:ADP, 0.8 mM MgCl2.
[6] abbreviates: initial mixture RFK:ATP, 0.0 mM MgCl2.
The mark [7] stands for this setting: initial mixture RFK:ATP, 0.8 mM MgCl2.
Setting [8] is: apparent, RF varied, [FMN] 1 μM.
Setting [9] is: apparent, RF varied, [FMN] 2 μM.
Where [10] appears, read: apparent, RF varied, [FMN] 3 μM.
Setting [11] is: apparent, RF varied, [FMN] 5 μM.
The mark [12] stands for this setting: initial mixture RFK, 0.0 mM MgCl2.
[13] abbreviates: initial mixture RFK, 0.8 mM MgCl2.

The source of these data is PMC5544777, “Kinetics and thermodynamics of the protein-ligand interactions in the riboflavin kinase activity of the FAD synthetase from Corynebacterium ammoniagenes” (Scientific Reports, 2017).

Values joined by “and” are separate entries in the source; they are usually repeats but may differ in a detail not shown here. Equal values may be shown once.

For orientation: Ki means a measure of affinity in units of concentration, obtained from inhibition or displacement. A word on the Kd: it is the free concentration of one partner at which half of the binding sites on the other are occupied at equilibrium, for simple one-to-one binding.

T1 sequence (Q59263 183-338 L183M): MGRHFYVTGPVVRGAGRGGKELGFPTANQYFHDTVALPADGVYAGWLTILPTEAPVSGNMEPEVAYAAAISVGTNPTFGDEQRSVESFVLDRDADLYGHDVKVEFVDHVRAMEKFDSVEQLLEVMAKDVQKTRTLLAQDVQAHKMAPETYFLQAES

Regarding `Cc1cc2nc3c(=O)[nH]c(=O)nc-3n(C[C@H](O)[C@H](O)[C@H](O)COP(=O)(O)O)c2cc1C` [FMN, flavin mononucleotide], on RFK module of CaFADS [1] (Dixon, Cornish-Bowden and Lineweaver-Burk plots), the “type of inhibition of the RFK activity” value is “uncompetitive inhibitor”. The “interaction with the RFK module on titration with the individual ligand” value on RFK module of CaFADS [2] (ITC thermograms, free RFK module, titrated at different temperatures) is “does not interact or interacts with undetectable ΔCp”. Besides, on RFK module of CaFADS [2] (setting [4]), the “-TΔS” value is given as 10.6 kcal/mol, the ΔG is -7.1 kcal/mol and the ΔH was -17.7 kcal/mol. At RFK module of CaFADS [2] (setting [5]), the “-TΔS” value is given as -1.9 kcal/mol, the ΔG is -8.4 kcal/mol and the ΔH is on record as -6.4 kcal/mol. Also, at RFK module of CaFADS [2] (setting [6]), the “-TΔS” value is reported as 15.4 kcal/mol, the ΔG was -6.3 kcal/mol and the ΔH is -21.7 kcal/mol. Moreover, at RFK module of CaFADS [2] (setting [7]), the “-TΔS” value is recorded as -0.2 kcal/mol, the ΔG is recorded as -7.1 kcal/mol and the ΔH is recorded as -6.9 kcal/mol. For the same molecule, in data set [3], the photobleaching rate is 0.0041 ± 0.00018 min⁻¹ and the “rate of slow linear fluorescence decay (photobleaching range)” value came out at 0.0041 ± 0.00024 min⁻¹.

In turn, `Cc1cc2nc3c(=O)[nH]c(=O)nc-3n(C[C@H](O)[C@H](O)[C@H](O)CO)c2cc1C` [RF, riboflavin] registered a Ki at RFK module of CaFADS [1] of 1.9 ± 0.2 µM. In addition, the KmRF on RFK module of CaFADS [1] (apparent, RF varied, [FMN] 0 μM) came out at 10 ± 2 µM; at RFK module of CaFADS [1] (setting [8]), 5.0 ± 1.1 µM; at RFK module of CaFADS [1] (setting [9]) it was 7.7 ± 1.4 µM; on RFK module of CaFADS [1] (setting [10]), 3.6 ± 0.9 µM; at RFK module of CaFADS [1] (setting [11]), 5.5 ± 2.1 µM; on RFK module of CaFADS [1] (global fit of Lineweaver-Burk equation, uncompetitive inhibition by FMN), 6.9 ± 0.4 µM. Also, the k cat at RFK module of CaFADS [1] (apparent, RF varied, [FMN] 0 μM, substrate inhibition model, 25 °C, 0.8 mM MgCl2, pH 7.0) was 7.33 ± 0.833 s⁻¹; at RFK module of CaFADS [1] (setting [8]), 4.67 ± 0.667 s⁻¹; on RFK module of CaFADS [1] (setting [9]), 4.5 ± 0.833 s⁻¹; on RFK module of CaFADS [1] (setting [10]), 2.33 ± 0.5 s⁻¹; at RFK module of CaFADS [1] (setting [11]), 2 ± 0.667 s⁻¹; at RFK module of CaFADS [1] (global fit of Lineweaver-Burk equation, uncompetitive inhibition by FMN, RF varied) it was 5.33 ± 0.667 s⁻¹ and 5.33 ± 0.5 s⁻¹. Also, the Kd on RFK module of CaFADS [2] (Kd, initial mixture RFK:ADP, 0.0 mM MgCl2) is 14.5 µM; at RFK module of CaFADS [2] (Kd, initial mixture RFK:ADP, 0.8 mM MgCl2), 2.3 µM; on RFK module of CaFADS [2] (Kd, initial mixture RFK, 0.8 mM MgCl2, 20 mM PIPES, pH 7.0, 25 °C), 15.2 µM; at RFK module of CaFADS [2] (setting [6]), “does not bind”. Besides, the “-TΔS” value at RFK module of CaFADS [2] (setting [4]) is given as 67.7 kcal/mol; at RFK module of CaFADS [2] (setting [5]), 11.5 kcal/mol; at RFK module of CaFADS [2] (setting [12]), -0.9 kcal/mol; at RFK module of CaFADS [2] (setting [13]), 4.1 kcal/mol. The ΔG on RFK module of CaFADS [2] (setting [4]) was -6.6 kcal/mol; at RFK module of CaFADS [2] (setting [5]) it was -7.6 kcal/mol; at RFK module of CaFADS [2] (setting [12]) it was -6.9 kcal/mol; at RFK module of CaFADS [2] (setting [13]), -6.6 kcal/mol. The ΔH on RFK module of CaFADS [2] (setting [4]) is -74.3 kcal/mol; on RFK module of CaFADS [2] (setting [5]) it was -19.2 kcal/mol; at RFK module of CaFADS [2] (setting [12]) it was -5.9 kcal/mol; at RFK module of CaFADS [2] (setting [13]), -10.6 kcal/mol. In data set [3], this molecule gave a photobleaching rate of 0.0046 ± 0.00018 min⁻¹. In addition, in data set [3], the “rate of slow linear fluorescence decay (photobleaching range)” value worked out at 0.0045 ± 0.00012 min⁻¹.
